The record followed here is PubChem BioAssay AID2060495 (Molecular Pharmacology Branch, DTP, NCI, 2025).

This test relates to 521955-158-R2-J5-PDC complex spheroid viability. Kind of test: Anticancer human tumor 521955-158-R2-J5-PDC patient-derived pancreatic carcinoma cell line growth inhibition [GQUAD]. The conditions noted are these: for viability, T/C: stronger effect = lower value. The text has this:
DNA G-quadruplex Stabilizer Agents in Combinations in Complex Spheroids
A high-throughput screen of multi-cell type tumor spheroids was designed to identify active combinations of DNA G-quadruplex stabilizer agents and targeted small molecules. Complex spheroids include a stromal component modeled by human endothelial cells (HUVEC) and fibroblasts modeled by human mesenchymal stem cells (MSCs). The concentration ranges selected for each drug and investigational agent were based upon clinically achievable concentrations if the clinical Cmax of the agent was known.
Compounds. The drugs and investigational agents: pidnarulex (CX-5461; NSC782164), APTO-253 (NSC789042), BRACO-19 (NSC847499), peposertib (NSC802822), ceralasertib (NSC780249), elimusertib (NSC800525), camonsertib (NSC841442), AZD-1390 (NSC803789), olaparib (NSC753686), talazoparib (NSC767125), ART-558 (NSC835418), sotorasib (NSC818433), MRTX-1133 (NSC836407), SN-38 (NSC673596), topotecan (NSC609699), etoposide (NSC141540), doxorubicin (NSC123127), gemcitabine (NSC613327), 5-fluorouracil (NSC19893), paclitaxel (NSC125973), vemurafenib (NSC761431), panobinostat (NSC761190), R-306465 (JNJ-16241199; NSC773264), adavosertib (NSC754352), TP-3654 (NSC805149), carboplatin (NSC241240), KSQ-4279 (NSC840948), and staurosporine (NSC755774) were obtained from the National Cancer Institute (NCI) Developmental Therapeutics Program Chemical Repository (34). The FDA-approved anticancer drug set is available from the NCI Developmental Therapeutics Program. […] The stock solutions were prepared in dimethyl sulfoxide (DMSO, Sigma-Aldrich, St. Louis, MO, cat. D2650) at 800-fold the tested concentration and stored at -70 degrees C prior to their use. All drugs and investigational agents were tested over a range starting from a high concentration at or near the clinical Cmax and decreasing in half-log increments. If the clinical Cmax for an agent had not been determined, the highest concentration tested was 10 microM.
2.3 Cell Culture. All cells were maintained in an incubator at 37 degrees C and 5% CO2 with 95% humidity. The PDC lines were cultured according to standard operating procedures established by the NCI PDMR. All PDCs were thawed and cultured in Matrigel-coated flasks prepared with a working solution of 1X Ham's F-12 nutrient mix, without supplementation (Invitrogen, cat. 11765054), 100 U/mL penicillin-streptomycin (Invitrogen, cat. 15140122), and 2.5% Matrigel (Corning Inc., cat. 354248) for the first three passages. The 857933-349-R-J2-PDC line was cultured in 6C/Colon 1B media, which includes advanced DMEM/F-12 (Thermo Fisher Scientific, cat. 12634028), 10 mM HEPES (Thermo Fisher Scientific, cat. 15630080), 1X GlutaMAX supplement (Thermo Fisher Scientific, cat. 35050061), 0.1 mg/mL primocin (InvivoGen, cat. ant-pm-2), 10% defined fetal bovine serum, heat inactivated (HyClone Laboratories Inc., cat. SH30070.03HI), 50% L-WRN conditioned media (ATCC, cat. CRL-3276), 1.25 mM N-Acetyl-L-cysteine (Sigma-Aldrich, cat. A9165), 10 mM nicotinamide (Sigma-Aldrich, cat. N0636), 1X B-27 supplement (Thermo Fisher Scientific, cat. 17504044), 1X N-2 supplement (Thermo Fisher Scientific, cat. 17502048), 10 microM Y-27632 dihydrochloride (Tocris Bioscience, cat. 1254), and 50 ng/mL human EGF recombinant protein (Thermo Fisher Scientific, cat. PHG0311). The 485176-168-R4-J1-PDC line was cultured in Panc media, which includes all 6C/Colon 1B media components plus 100 ng/mL human FGF-10 (Thermo Fisher Scientific, cat. 100-26), 500 nM SB-431542 (Selleckchem, cat. S1067), and gastrin (Tocris, cat. 3006).
[…]

SMILES strings stand for the structures. Several values for one entry are separate records, joined by “and”; a condition that tells them apart may be missing. Identical values can stand only once.
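Note: spheroids exposed to agents for one week before reading.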

For `CCCS(=O)(=O)Nc1ccc(F)c(C(=O)c2c[nH]c3ncc(-c4ccc(Cl)cc4)cc23)c1F` + Cc1cnc(CNC(=O)c2c(=O)c3ccc(N4CCCN(C)CC4)nc3n3c2sc2ccccc23)cn1, the IC50 is 9260 nM (curve of first compound, second compound 0.0316 µM); greater than 10000 nM (curve of first compound, second compound 0.1 µM); less than 31.6 nM (curve of first compound, second compound 0.316 µM); less than 31.6 nM (curve of first compound, second compound 1 µM); less than 31.6 nM (curve of first compound, second compound 3.16 µM); less than 31.6 nM (curve of first compound, second compound 10 µM). Moreover, the viability, T/C (second compound 0.0316 µM, first compound 0.0316 µM) is 79.5%; the viability, T/C (second compound 0.0316 µM, first compound 0.1 µM) was 63.5%; the viability, T/C (second compound 0.0316 µM, first compound 0.316 µM) is 113%; the viability, T/C (second compound 0.0316 µM, first compound 1 µM) is 113%; the viability, T/C (second compound 0.0316 µM, first compound 3.16 µM) was 109%; the viability, T/C (second compound 0.0316 µM, first compound 10 µM) was 46.8%. The viability, T/C is 52.4% (second compound 0.1 µM, first compound 0.0316 µM); 69.6% (second compound 0.1 µM, first compound 0.1 µM); 59.4% (second compound 0.1 µM, first compound 0.316 µM); 64% (second compound 0.1 µM, first compound 1 µM); 61.8% (second compound 0.1 µM, first compound 3.16 µM); 39% (second compound 0.1 µM, first compound 10 µM). The viability, T/C is, setting by setting: (second compound 0.316 µM, first compound 0.0316 µM) 32%; (second compound 0.316 µM, first compound 0.1 µM) 37.3%; (second compound 0.316 µM, first compound 0.316 µM) 27.1%; (second compound 0.316 µM, first compound 1 µM) 32.6%; (second compound 0.316 µM, first compound 3.16 µM) 35.7%; (second compound 0.316 µM, first compound 10 µM) 26.4%. Besides, the viability, T/C reads like this: (second compound 1 µM, first compound 0.0316 µM) 17.8%; (second compound 1 µM, first compound 0.1 µM) 18.2%; (second compound 1 µM, first compound 0.316 µM) 17.9%; (second compound 1 µM, first compound 1 µM) 18.9%; (second compound 1 µM, first compound 3.16 µM) 24.2%; (second compound 1 µM, first compound 10 µM) 16.8%. Also, the viability, T/C is 12.7% (second compound 3.16 µM, first compound 0.0316 µM); 14.3% (second compound 3.16 µM, first compound 0.1 µM); 16.8% (second compound 3.16 µM, first compound 0.316 µM); 16.1% (second compound 3.16 µM, first compound 1 µM); 20.7% (second compound 3.16 µM, first compound 3.16 µM); 0.32% (second compound 3.16 µM, first compound 10 µM). Besides, the viability, T/C runs as follows: (second compound 10 µM, first compound 0.0316 µM) 9.58%; (second compound 10 µM, first compound 0.1 µM) 16.2%; (second compound 10 µM, first compound 0.316 µM) 16.9%; (second compound 10 µM, first compound 1 µM) 18.7%; (second compound 10 µM, first compound 3.16 µM) 21.4%; (second compound 10 µM, first compound 10 µM) 0.33%.

For the compound `C=CC(=O)N1CCN(c2nc(=O)n(-c3c(C)ccnc3C(C)C)c3nc(-c4c(O)cccc4F)c(F)cc23)C(C)C1` (stereo not drawn), the viability, T/C runs as follows: (compound 0.0316 µM) 86.9% and 107% and 102%; (compound 0.1 µM) 95.5% and 94.6% and 97.9%; (compound 0.316 µM) 84.9% and 115% and 119%; (compound 1 µM) 110% and 98.3% and 102%; (compound 3.16 µM) 109% and 115% and 123%; (compound 10 µM) 91% and 91.9% and 80.9%. In addition, for the setting “curve of compound”, the IC50 was greater than 10000 nM.

On to `O=c1[nH]cc(F)c(=O)[nH]1`, for which the viability, T/C is, setting by setting: (compound 0.0316 µM) 86.1% and 107% and 116%; (compound 0.1 µM) 86% and 88.3% and 87.4%; (compound 0.316 µM) 89.2% and 109% and 92.6%; (compound 1 µM) 80% and 99% and 101%; (compound 3.16 µM) 47.1% and 45% and 102%; (compound 10 µM) 20.3% and 18.2% and 54.8%. In addition, under “curve of compound”, the IC50 is 2850 nM and 2840 nM and > 10000 nM.

On to `Cc1[nH]c2ccccc2c1CCNCc1ccc(/C=C/C(=O)NO)cc1`, for which the viability, T/C is, setting by setting: (compound 0.000999 µM) 110% and 125% and 100%; (compound 0.00316 µM) 103% and 117% and 100%; (compound 0.00999 µM) 139% and 135% and 112%; (compound 0.0316 µM) 103% and 110% and 102%; (compound 0.0999 µM) 55.7% and 53.2% and 51%; (compound 0.316 µM) 20.8% and 22.1% and 11.1%. Moreover, the IC50 (curve of compound) was 118 nM and 111 nM and 103 nM.

The IC50 is the concentration that gives 50% inhibition. The term viability, T/C denotes the ratio of treated to control.
